{"source": "paper PMC7281072", "about": "(Cancers, 2020)", "key": {"SK-OV-3 cancer cell line": {"system": "SK-OV-3 cancer cell line", "experiment": "cells", "details": "Homo sapiens, SK-OV-3, 48 h"}, "[1]": {"system": "UWB1.289+BRCA1 cancer cell line", "experiment": "cells", "details": "Homo sapiens, 48 h"}, "AKT1,2 phosphorylation [2]": {"system": "AKT1,2 phosphorylation", "experiment": "AKT phosphorylation ELISA, SK-OV-3 cells", "assay_type": "cell-based, human", "details": "for Vmax ± SE, pAKT 1/2 inhibition: Michaelis Menten model; for IC50: Homo sapiens, read-out: IC50, pAKT 1/2 inhibition"}, "ERK1,2 phosphorylation [3]": {"system": "ERK1,2 phosphorylation", "experiment": "ERK1/2 phosphorylation ELISA, OVCAR-3 cells", "assay_type": "cell-based, human", "details": "for Vmax ± SE, pERK 1/2 inhibition: Michaelis Menten model; for IC50: Homo sapiens, read-out: IC50, pERK 1/2 inhibition"}, "AKT1,2 phosphorylation [4]": {"system": "AKT1,2 phosphorylation", "experiment": "AKT phosphorylation ELISA, UWB1.289 cells", "assay_type": "cell-based, human", "details": "for Vmax ± SE, pAKT 1/2 inhibition: Michaelis Menten model; for IC50: Homo sapiens, read-out: IC50, pAKT 1/2 inhibition"}, "[5]": {"system": "UWB1.289 cancer cell line", "experiment": "cells", "details": "Homo sapiens, UWB1289, 48 h"}, "pERK1,2": {"system": "pERK1,2", "experiment": "Western immunoblotting densitometry, pERK1,2, OVCAR-3 cells", "assay_type": "cell-based, human", "details": "25 μM; for ratio [pERK1+pERK2]/[GAPDH] band intensity: OVCAR-3 cells; for ratio [pERK1+pERK2]/[GAPDH] band intensity, single blot (panel A): panel A upper set, cell line not given"}, "[6]": {"system": "UWB1.289 cancer cell line"}, "ERK1,2 phosphorylation [7]": {"system": "ERK1,2 phosphorylation", "experiment": "ERK1/2 phosphorylation ELISA, SK-OV-3 cells", "assay_type": "cell-based, human", "details": "for Vmax ± SE, pERK 1/2 inhibition: Michaelis Menten model; for IC50: Homo sapiens, read-out: IC50, pERK 1/2 inhibition"}, "ERK1,2 phosphorylation [8]": {"system": "ERK1,2 phosphorylation", "experiment": "ERK1/2 phosphorylation ELISA, UWB1.289+BRCA1 cells", "assay_type": "cell-based, human", "details": "for Vmax ± SE, pERK 1/2 inhibition: Michaelis Menten model; for IC50: Homo sapiens, read-out: IC50, pERK 1/2 inhibition"}, "[9]": {"system": "SKOV-3 human ovarian adenocarcinoma xenograft", "design": "species or system CB17 SCID mice", "details": "mouse, in vivo"}, "[10]": {"details": "read-out: GI50 (50% Growth Inhibition)"}, "[11]": {"details": "read-out: IC50 (cytotoxic effect)"}}}
{"smiles": "C[C@]12CC[C@@H]3c4ccc(OC(=O)CCOc5ccc(N(CCCl)CCCl)cc5)cc4CC[C@H]3[C@@H]1CCC(=O)N2", "note": "[ENGA-L08E, 12a-methyl-2-oxo-1,2,3,4,4a,4b,5,6,10b,11,12,12a-dodecahydronaphtho[2,1-f]quinolin-8-yl 3-(4-(bis (2-chloroethyl)amino)phenoxy) propanoate]", "values": [{"measurement": "GI50", "setting": "SK-OV-3 cancer cell line; [10]", "value": "10 ± 0.5", "unit": "µM"}, {"measurement": "IC50", "setting": "SK-OV-3 cancer cell line; [11]", "value": "> 100", "unit": "µM"}, {"measurement": "GI50", "setting": "[1]; [10]", "value": "18 ± 1", "unit": "µM"}, {"measurement": "IC50", "setting": "[1]; [11]", "value": "88 ± 8.1", "unit": "µM"}, {"measurement": "Vmax ± SE, pAKT 1/2 inhibition", "setting": "AKT1,2 phosphorylation [2]; 15 min", "value": "79.22 ± 0.89"}, {"measurement": "Vmax ± SE, pAKT 1/2 inhibition", "setting": "AKT1,2 phosphorylation [2]; 30 min", "value": "81.78 ± 2.53"}, {"measurement": "Vmax ± SE, pAKT 1/2 inhibition", "setting": "AKT1,2 phosphorylation [2]; 60 min", "value": "82.20 ± 1.68"}, {"measurement": "IC50", "setting": "AKT1,2 phosphorylation [2]; 0.25 h, 15 min", "value": 29.6, "unit": "µM"}, {"measurement": "IC50", "setting": "AKT1,2 phosphorylation [2]; 0.5 h, 30 min", "value": 24.9, "unit": "µM"}, {"measurement": "IC50", "setting": "AKT1,2 phosphorylation [2]; 1 h, 60 min", "value": 21.8, "unit": "µM"}, {"measurement": "Vmax ± SE, pERK 1/2 inhibition", "setting": "ERK1,2 phosphorylation [3]; 15 min", "value": "56.77 ± 0.49"}, {"measurement": "Vmax ± SE, pERK 1/2 inhibition", "setting": "ERK1,2 phosphorylation [3]; 30 min", "value": "61.29 ± 1.88"}, {"measurement": "Vmax ± SE, pERK 1/2 inhibition", "setting": "ERK1,2 phosphorylation [3]; 60 min", "value": "63.79 ± 1.33"}, {"measurement": "IC50", "setting": "ERK1,2 phosphorylation [3]; 0.25 h, 15 min", "value": 48.9, "unit": "µM"}, {"measurement": "IC50", "setting": "ERK1,2 phosphorylation [3]; 0.5 h, 30 min", "value": 17.8, "unit": "µM"}, {"measurement": "IC50", "setting": "ERK1,2 phosphorylation [3]; 1 h, 60 min", "value": 9.51, "unit": "µM"}, {"measurement": "Vmax ± SE, pAKT 1/2 inhibition", "setting": "AKT1,2 phosphorylation [4]; 15 min", "value": "63.02 ± 1.33"}, {"measurement": "Vmax ± SE, pAKT 1/2 inhibition", "setting": "AKT1,2 phosphorylation [4]; 30 min", "value": "68.23 ± 0.99"}, {"measurement": "Vmax ± SE, pAKT 1/2 inhibition", "setting": "AKT1,2 phosphorylation [4]; 60 min", "value": "70.28 ± 2.75"}, {"measurement": "IC50", "setting": "AKT1,2 phosphorylation [4]; UWB1289, 0.25 h, 15 min", "value": 14.1, "unit": "µM"}, {"measurement": "IC50", "setting": "AKT1,2 phosphorylation [4]; UWB1289, 0.5 h, 30 min", "value": 8.24, "unit": "µM"}, {"measurement": "IC50", "setting": "AKT1,2 phosphorylation [4]; UWB1289, 1 h, 60 min", "value": 6.6, "unit": "µM"}, {"measurement": "GI50", "setting": "[5]; [10]", "value": "8 ± 0.9", "unit": "µM"}, {"measurement": "IC50", "setting": "[5]; [11]", "value": "45 ± 3.3", "unit": "µM"}, {"measurement": "ratio [pERK1+pERK2]/[GAPDH] band intensity", "setting": "pERK1,2; 30min, control ratio 1.71", "value": 1.01}, {"measurement": "ratio [pERK1+pERK2]/[GAPDH] band intensity", "setting": "pERK1,2; 1h, control ratio 1.65", "value": 0.94}, {"measurement": "ratio [pERK1+pERK2]/[GAPDH] band intensity", "setting": "pERK1,2; 3h, control ratio 1.99", "value": 0.83}, {"measurement": "ratio [pERK1+pERK2]/[GAPDH] band intensity", "setting": "pERK1,2; 6h, control ratio 1.85", "value": 0.76}, {"measurement": "ratio [pERK1+pERK2]/[GAPDH] band intensity", "setting": "pERK1,2; 12h, control ratio 1.82", "value": 0.76}, {"measurement": "ratio [pERK1+pERK2]/[GAPDH] band intensity", "setting": "pERK1,2; 24h, control ratio 1.92", "value": 0.84}, {"measurement": "ratio [pERK1+pERK2]/[GAPDH] band intensity, single blot (panel A)", "setting": "pERK1,2; 1h, control ratio 1.85", "value": 0.51}, {"measurement": "ratio [pERK1+pERK2]/[GAPDH] band intensity, single blot (panel A)", "setting": "pERK1,2; 3h, control ratio 1.85", "value": 0.28}, {"measurement": "TGI (Total Growth Inhibition)", "setting": "[6]", "value": "20 ± 1.5", "unit": "μΜ"}, {"measurement": "TGI (Total Growth Inhibition)", "setting": "OVCAR-3 cancer cell line", "value": "40 ± 2.7", "unit": "μΜ"}, {"measurement": "Vmax ± SE, pERK 1/2 inhibition", "setting": "ERK1,2 phosphorylation [7]; 15 min", "value": "45.92 ± 2.07"}, {"measurement": "Vmax ± SE, pERK 1/2 inhibition", "setting": "ERK1,2 phosphorylation [7]; 30 min", "value": "71.49 ± 0.55"}, {"measurement": "Vmax ± SE, pERK 1/2 inhibition", "setting": "ERK1,2 phosphorylation [7]; 60 min", "value": "74.32 ± 0.43"}, {"measurement": "IC50", "setting": "ERK1,2 phosphorylation [7]; 0.25 h, 15 min", "value": "> 50", "unit": "µM"}, {"measurement": "IC50", "setting": "ERK1,2 phosphorylation [7]; 0.5 h, 30 min", "value": 11.2, "unit": "µM"}, {"measurement": "IC50", "setting": "ERK1,2 phosphorylation [7]; 1 h, 60 min", "value": 7.67, "unit": "µM"}, {"measurement": "Vmax ± SE, pERK 1/2 inhibition", "setting": "ERK1,2 phosphorylation [8]; 15 min", "value": "56.97 ± 0.61"}, {"measurement": "Vmax ± SE, pERK 1/2 inhibition", "setting": "ERK1,2 phosphorylation [8]; 30 min", "value": "66.56 ± 1.99"}, {"measurement": "Vmax ± SE, pERK 1/2 inhibition", "setting": "ERK1,2 phosphorylation [8]; 60 min", "value": "71.72 ± 1.86"}, {"measurement": "IC50", "setting": "ERK1,2 phosphorylation [8]; 0.25 h, 15 min", "value": 25, "unit": "µM"}, {"measurement": "IC50", "setting": "ERK1,2 phosphorylation [8]; 0.5 h, 30 min", "value": 10.7, "unit": "µM"}, {"measurement": "IC50", "setting": "ERK1,2 phosphorylation [8]; 1 h, 60 min", "value": 8.56, "unit": "µM"}, {"measurement": "Median Overall Survival (OS)", "setting": "[9]", "value": 105, "unit": "days"}, {"measurement": "Progression Free Survival (PFS)", "setting": "[9]", "value": 13, "unit": "days"}, {"measurement": "Response Rate (RR)", "setting": "[9]", "value": 100, "unit": "%"}, {"measurement": "Cures (mice alive for 120 days after tumor inoculation)", "setting": "[9]; ip", "value": "2/5"}, {"measurement": "MST (mean survival time)", "setting": "[9]; ip", "value": "76.5 ± 3.9", "unit": "p < 0.01 Days"}, {"measurement": "T/C% (mean survival time of treated versus saline controls)", "setting": "[9]; ip", "value": 187.9, "unit": "%"}, {"measurement": "TI% (Tumor Inhibition)", "setting": "[9]; ip", "value": 76.4, "unit": "%"}]}
